Results as given in patent US7968599B2, “Fast release solid formulation, preparation and use thereof” (Intervet International B.V., priority 2007, dated 2011).

Assay: Dissolution / solubility rate profile, USP apparatus 2 with paddle agitation
Type: physicochemical
Details: Milli-Q water 25° C., paddle 50 rpm, final 0.1 mg/mL florfenicol
Description: To determine the solubility profile of different formulations, dissolution was performed using USP apparatus 2 with paddle agitation at 50 rpm. The dissolution medium was Milli-Q water maintained at a temperature of 25° C. The formulations were added directly to the water in the correct amount to achieve a final concentration of 0.1 mg/mL of florfenicol. Aliquots of the resulting solution were withdrawn and analyzed using either UV-VIS spectrophotometry or HPLC, the latter to exclude excipient contribution or degradation of florfenicol. For HPLC analysis, an organic/aqueous mobile phase was used for the separation on a C18, reverse phase column. Detection was performed by UV absorption spectrometry. The percent dissolved was calculated versus an external reference standard prepared at the nominal concentration of the analyte.

CS(=O)(=O)c1ccc([C@@H](O)[C@@H](CF)NC(=O)C(Cl)Cl)cc1 (relative stereo) [florfenicol, [R-(R*,S*)]-2,2-Dichloro-N-[1-(fluoromethyl)-2-hydroxy-2-[4-(methylsulfonyl)phenyl]-ethyl]acetamide]
percent florfenicol dissolved within 15 minutes (15 minutes): approximately 25%
percent florfenicol dissolved within 60 minutes (60 minutes): approximately 43%
